Results: US20180110762A1, “Compositions Methods for Treating Chronic Kidney Disease” (Merck Sharp & Dohme Corp, priority 2015, published 2018)

Assay: ZSF1 rat 28-week in-feed study: body weight, food and water intake
Format: in vivo
Details: obese ZSF1 rats
Description: The effects of Compound A (“A”) on renal function, plasma triglycerides, plasma cholesterol, kidney collagen I, kidney collagen III, renal histology, glomerular filtration rate, fibrosis score, and mRNA gene expression (profibrotic genes and integrin β3) were evaluated in male obese ZSF1 rats (a hybrid F1 of Zucker diabetic fatty rat and spontaneously hypertensive heart failure rat; a diabetic nephropathy model) when administered as in-feed for 28 weeks. Sixty obese male ZSF1 rats were randomized to five groups: Obese control (n=12), Compound A 60 mpk (n=12), Compound A 200 mpk (n=12), Compound A 400 mpk (n=12), Enalapril 10 mpk (n=12); Eight lean male ZSF1 rats were used for normal control. Renal functional changes were monitored by blood and urine analysis following in-feed dosing for 28 weeks. Compound exposure was also monitored during the study.

In the case of `COc1ccc([C@H](CC(=O)O)N2CCN(CCCc3ccc4c(n3)NCCC4)C2=O)cn1` [Compound A, 3-{2-Oxo-3-[3-(5,6,7,8-tetrahydro-[1,8]naphthyridin-2-yl)-propyl]imidazolidin-1-yl}-3 (S)-(6-methoxy-pyridin-3-yl)-propionic acid], the “Body Weight” value (60 mpk in-feed, week 1) is reported as 566.6 ± 7.3 grams, the “Food Intake” value (60 mpk in-feed, week 1) is reported as 30.5 ± 1.2 grams/24 h and the “Water Intake” value (60 mpk in-feed, week 1) is reported as 34.6 ± 3.4 mls/24 h. The “Body Weight” value (60 mpk in-feed, week 2) was 577.4 ± 7.2 grams, the “Food Intake” value (60 mpk in-feed, week 2) was 26.9 ± 1.0 grams/24 h and the “Water Intake” value (60 mpk in-feed, week 2) was 34.5 ± 2.2 mls/24 h. For the same molecule, the “Body Weight” value (60 mpk in-feed, week 4) was 599.8 ± 7.4 grams, the “Food Intake” value (60 mpk in-feed, week 4) was 29.5 ± 2.1 grams/24 h and the “Water Intake” value (60 mpk in-feed, week 4) was 46.0 ± 5.7 mls/24 h. The “Body Weight” value (60 mpk in-feed, week 6) was 624.7 ± 9.0 grams, the “Food Intake” value (60 mpk in-feed, week 6) was 32.8 ± 0.9 grams/24 h and the “Water Intake” value (60 mpk in-feed, week 6) was 45.8 ± 4.5 mls/24 h. The “Body Weight” value (60 mpk in-feed, week 8) was 652.0 ± 9.4 grams, the “Food Intake” value (60 mpk in-feed, week 8) was 34.1 ± 1.1 grams/24 h and the “Water Intake” value (60 mpk in-feed, week 8) was 59.2 ± 4.5 mls/24 h. For the same molecule, the “Body Weight” value (60 mpk in-feed, week 10) was 678.0 ± 10.9 grams, the “Body Weight” value (60 mpk in-feed, week 12) was 703.7 ± 11.9 grams and the “Food Intake” value (60 mpk in-feed, week 12) was 36.7 ± 1.6 grams/24 h. For the same molecule, the “Water Intake” value (60 mpk in-feed, week 12) was 71.5 ± 4.9 mls/24 h, the “Body Weight” value (60 mpk in-feed, week 14) was 712.1 ± 12.7 grams and the “Body Weight” value (60 mpk in-feed, week 16) was 733.8 ± 13.2 grams. The “Food Intake” value (60 mpk in-feed, week 16) was 33.2 ± 1.3 grams/24 h, the “Water Intake” value (60 mpk in-feed, week 16) was 63.7 ± 4.9 mls/24 h and the “Body Weight” value (60 mpk in-feed, week 18) was 746.9 ± 14.1 grams. The “Body Weight” value (60 mpk in-feed, week 21) was 781.1 ± 14.1 grams, the “Food Intake” value (60 mpk in-feed, week 21) was 34.6 ± 1.6 grams/24 h and the “Water Intake” value (60 mpk in-feed, week 21) was 64.5 ± 8.5 mls/24 h. For the same molecule, the “Body Weight” value (60 mpk in-feed, week 24) was 808.9 ± 14.6 grams, the “Food Intake” value (60 mpk in-feed, week 24) was 31.2 ± 1.0 grams/24 h and the “Water Intake” value (60 mpk in-feed, week 24) was 59.4 ± 4.7 mls/24 h. The “Body Weight” value (60 mpk in-feed, week 28) was 839.0 ± 14.9 grams, the “Food Intake” value (60 mpk in-feed, week 28) was 31.6 ± 1.0 grams/24 h and the “Water Intake” value (60 mpk in-feed, week 28) was 66.5 ± 6.6 mls/24 h. For the same molecule, the “Body Weight” value (60 mpk in-feed, week −2) was 521.3 ± 6.9 grams, the “Food Intake” value (60 mpk in-feed, week −2) was 38.6 ± 1.0 grams/24 h and the “Water Intake” value (60 mpk in-feed, week −2) was 60.8 ± 4.5 mls/24 h. The “Body Weight” value (200 mpk in-feed, week 1) was 568.6 ± 7.4 grams, the “Food Intake” value (200 mpk in-feed, week 1) was 29.0 ± 1.0 grams/24 h and the “Water Intake” value (200 mpk in-feed, week 1) was 30.7 ± 1.9 mls/24 h. The “Body Weight” value (200 mpk in-feed, week 2) was 581.5 ± 7.0 grams, the “Food Intake” value (200 mpk in-feed, week 2) was 29.2 ± 1.1 grams/24 h and the “Water Intake” value (200 mpk in-feed, week 2) was 29.2 ± 2.5 mls/24 h. The “Body Weight” value (200 mpk in-feed, week 4) was 605.9 ± 7.1 grams, the “Food Intake” value (200 mpk in-feed, week 4) was 30.6 ± 1.0 grams/24 h and the “Water Intake” value (200 mpk in-feed, week 4) was 33.4 ± 2.0 mls/24 h. For the same molecule, the “Body Weight” value (200 mpk in-feed, week 6) was 631.8 ± 7.7 grams, the “Food Intake” value (200 mpk in-feed, week 6) was 34.3 ± 1.6 grams/24 h and the “Water Intake” value (200 mpk in-feed, week 6) was 39.4 ± 2.8 mls/24 h. For the same molecule, the “Body Weight” value (200 mpk in-feed, week 8) was 663.0 ± 7.4 grams, the “Food Intake” value (200 mpk in-feed, week 8) was 31.8 ± 1.2 grams/24 h and the “Water Intake” value (200 mpk in-feed, week 8) was 51.4 ± 4.6 mls/24 h. For the same molecule, the “Body Weight” value (200 mpk in-feed, week 10) was 690.6 ± 8.5 grams, the “Body Weight” value (200 mpk in-feed, week 12) was 718.9 ± 9.3 grams and the “Food Intake” value (200 mpk in-feed, week 12) was 35.6 ± 0.9 grams/24 h. The “Water Intake” value (200 mpk in-feed, week 12) was 63.9 ± 4.8 mls/24 h, the “Body Weight” value (200 mpk in-feed, week 14) was 729.3 ± 11.9 grams and the “Body Weight” value (200 mpk in-feed, week 16) was 754.1 ± 11.9 grams. The “Food Intake” value (200 mpk in-feed, week 16) was 33.6 ± 1.5 grams/24 h, the “Water Intake” value (200 mpk in-feed, week 16) was 57.3 ± 5.0 mls/24 h and the “Body Weight” value (200 mpk in-feed, week 18) was 772.3 ± 13.1 grams. For the same molecule, the “Body Weight” value (200 mpk in-feed, week 21) was 800.2 ± 13.9 grams, the “Food Intake” value (200 mpk in-feed, week 21) was 35.6 ± 0.9 grams/24 h and the “Water Intake” value (200 mpk in-feed, week 21) was 58.1 ± 3.6 mls/24 h. The “Body Weight” value (200 mpk in-feed, week 24) was 825.7 ± 14.7 grams, the “Food Intake” value (200 mpk in-feed, week 24) was 31.7 ± 1.2 grams/24 h and the “Water Intake” value (200 mpk in-feed, week 24) was 61.8 ± 3.5 mls/24 h. The “Body Weight” value (200 mpk in-feed, week 28) was 848.1 ± 16.4 grams, the “Food Intake” value (200 mpk in-feed, week 28) was 33.3 ± 1.2 grams/24 h and the “Water Intake” value (200 mpk in-feed, week 28) was 70.5 ± 5.6 mls/24 h. For the same molecule, the “Body Weight” value (200 mpk in-feed, week −2) was 520.6 ± 6.4 grams, the “Food Intake” value (200 mpk in-feed, week −2) was 37.7 ± 1.4 grams/24 h and the “Water Intake” value (200 mpk in-feed, week −2) was 59.1 ± 5.9 mls/24 h. The “Body Weight” value (400 mpk in-feed, week 1) was 568.3 ± 6.5 grams, the “Food Intake” value (400 mpk in-feed, week 1) was 30.0 ± 1.6 grams/24 h and the “Water Intake” value (400 mpk in-feed, week 1) was 37.6 ± 2.8 mls/24 h. For the same molecule, the “Body Weight” value (400 mpk in-feed, week 2) was 582.8 ± 6.5 grams, the “Food Intake” value (400 mpk in-feed, week 2) was 32.0 ± 1.2 grams/24 h and the “Water Intake” value (400 mpk in-feed, week 2) was 40.3 ± 3.1 mls/24 h. The “Body Weight” value (400 mpk in-feed, week 4) was 604.1 ± 7.2 grams, the “Food Intake” value (400 mpk in-feed, week 4) was 33.6 ± 0.9 grams/24 h and the “Water Intake” value (400 mpk in-feed, week 4) was 45.0 ± 3.7 mls/24 h. For the same molecule, the “Body Weight” value (400 mpk in-feed, week 6) was 631.8 ± 8.9 grams, the “Food Intake” value (400 mpk in-feed, week 6) was 34.6 ± 1.2 grams/24 h and the “Water Intake” value (400 mpk in-feed, week 6) was 49.9 ± 4.8 mls/24 h. The “Body Weight” value (400 mpk in-feed, week 8) was 654.5 ± 10.6 grams, the “Food Intake” value (400 mpk in-feed, week 8) was 34.2 ± 1.4 grams/24 h and the “Water Intake” value (400 mpk in-feed, week 8) was 62.2 ± 5.6 mls/24 h. For the same molecule, the “Body Weight” value (400 mpk in-feed, week 10) was 676.5 ± 12.7 grams, the “Body Weight” value (400 mpk in-feed, week 12) was 704.8 ± 12.8 grams and the “Food Intake” value (400 mpk in-feed, week 12) was 35.7 ± 0.7 grams/24 h. For the same molecule, the “Water Intake” value (400 mpk in-feed, week 12) was 63.5 ± 5.3 mls/24 h, the “Body Weight” value (400 mpk in-feed, week 14) was 704.4 ± 14.6 grams and the “Body Weight” value (400 mpk in-feed, week 16) was 739.3 ± 15.0 grams. The “Food Intake” value (400 mpk in-feed, week 16) was 33.6 ± 0.7 grams/24 h, the “Water Intake” value (400 mpk in-feed, week 16) was 63.0 ± 3.9 mls/24 h and the “Body Weight” value (400 mpk in-feed, week 18) was 757.9 ± 16.9 grams. For the same molecule, the “Body Weight” value (400 mpk in-feed, week 21) was 791.2 ± 18.4 grams, the “Food Intake” value (400 mpk in-feed, week 21) was 36.0 ± 1.2 grams/24 h and the “Water Intake” value (400 mpk in-feed, week 21) was 59.3 ± 4.4 mls/24 h. For the same molecule, the “Body Weight” value (400 mpk in-feed, week 24) was 823.8 ± 18.9 grams, the “Food Intake” value (400 mpk in-feed, week 24) was 33.3 ± 1.5 grams/24 h and the “Water Intake” value (400 mpk in-feed, week 24) was 67.2 ± 4.8 mls/24 h. For the same molecule, the “Body Weight” value (400 mpk in-feed, week 28) was 852.1 ± 19.5 grams, the “Food Intake” value (400 mpk in-feed, week 28) was 32.1 ± 1.7 grams/24 h and the “Water Intake” value (400 mpk in-feed, week 28) was 80.1 ± 4.6 mls/24 h. The “Body Weight” value (400 mpk in-feed, week −2) was 522.3 ± 7.1 grams, the “Food Intake” value (400 mpk in-feed, week −2) was 37.7 ± 1.1 grams/24 h and the “Water Intake” value (400 mpk in-feed, week −2) was 57.2 ± 4.9 mls/24 h. For the same molecule, the “effect on body weight (BW)” value (in-feed for 28 weeks) was “no significant effect”, the “effect on food intake (FI)” value (in-feed for 28 weeks) was “no significant effect” and the “effect on water intake (WI)” value (in-feed for 28 weeks) was “no significant effect”.
